Data set [1] concerns the target T1, 5-hydroxytryptamine receptor 2B (Homo sapiens, UniProt P41595). Nature of the data set: Antagonist activity at human 5HT2B receptor expressed in CHO cells assessed as intracellular cAMP formation by RIA. In kind it is functional, cell-based. Background: Changes in cAMP serve as a functional read-out for many G protein-coupled receptors.
Data set [2] has as its target T1, 5-hydroxytryptamine receptor 2B. The data set is described as follows: Displacement of [3H]5HT from human 5HT2B receptor expressed in CHO cells by scintillation counting. It counts as cell-based. In general terms: In a radioligand displacement assay an active substance lowers the binding of a labelled ligand.
The target in data set [3] is T2, 5-hydroxytryptamine receptor 6 (Homo sapiens, UniProt P50406). The data set is described as follows: Antagonist activity at human cloned 5HT6 receptor expressed in human HeLa cells assessed as intracellular cAMP formation by RIA. In kind it is functional, cell-based.
T2 sequence (P50406 whole entry): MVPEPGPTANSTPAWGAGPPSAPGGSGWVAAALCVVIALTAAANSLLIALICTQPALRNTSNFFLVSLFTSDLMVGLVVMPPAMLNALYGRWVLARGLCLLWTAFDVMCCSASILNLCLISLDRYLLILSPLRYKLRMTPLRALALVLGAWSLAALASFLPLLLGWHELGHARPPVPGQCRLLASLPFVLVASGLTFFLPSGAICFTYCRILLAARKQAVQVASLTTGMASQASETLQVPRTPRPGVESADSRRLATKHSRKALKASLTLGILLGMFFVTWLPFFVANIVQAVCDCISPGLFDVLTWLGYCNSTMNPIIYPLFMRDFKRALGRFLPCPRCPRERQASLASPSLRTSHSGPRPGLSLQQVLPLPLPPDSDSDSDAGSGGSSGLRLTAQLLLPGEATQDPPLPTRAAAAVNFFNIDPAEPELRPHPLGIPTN
Data set [4] addresses T1, 5-hydroxytryptamine receptor 2B. Nature of the data set: Agonist activity at human 5HT2B receptor expressed in CHO cells assessed as intracellular cAMP formation by RIA. It counts as functional, cell-based.
Data set [5] deals with T2, 5-hydroxytryptamine receptor 6. The data set is described as follows: Displacement of [3H]LSD from human 5HT6 receptor by scintillation counting.
Data set [6] has as its system Rattus norvegicus. The data set is described as follows: Cognitive enhancing effect in Long-Evans rat assessed as improvement of recognition memory at 3 mg/kg, ip administered 1 hr prior to learning trial measured after 48 hrs during testing trial by novel object recognition test. Set-up: dose 3 mg/kg. In kind it is functional, organism-based.
Data set [7] concerns the target T3, 5-hydroxytryptamine receptor 1A (Homo sapiens, UniProt P08908).
T3 sequence (P08908 whole entry): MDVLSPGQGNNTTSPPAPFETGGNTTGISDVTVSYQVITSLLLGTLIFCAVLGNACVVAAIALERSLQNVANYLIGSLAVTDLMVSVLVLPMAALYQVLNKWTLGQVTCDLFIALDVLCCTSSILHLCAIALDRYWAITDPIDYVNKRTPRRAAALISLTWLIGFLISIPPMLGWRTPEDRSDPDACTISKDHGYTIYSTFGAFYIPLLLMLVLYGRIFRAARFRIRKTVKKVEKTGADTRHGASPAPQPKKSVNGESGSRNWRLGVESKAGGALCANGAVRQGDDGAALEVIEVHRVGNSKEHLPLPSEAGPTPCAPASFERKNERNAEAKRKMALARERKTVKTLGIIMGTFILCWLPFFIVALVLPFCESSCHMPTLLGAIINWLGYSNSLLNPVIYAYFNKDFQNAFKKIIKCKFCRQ
Nature of the data set: Binding affinity to 5HT1A receptor.

A further data set concerns the target CYP3A4 (Homo sapiens, UniProt P08684). The data set is described as follows: Inhibition of CYP3A4 at 3 uM. In kind it is ADME.
The target of the next data set is hERG (KCNH2) (Homo sapiens, UniProt Q12809). The data set is described as follows: Inhibition of human ERG at 10 uM.
Sequence of hERG (KCNH2) (Q12809 whole entry): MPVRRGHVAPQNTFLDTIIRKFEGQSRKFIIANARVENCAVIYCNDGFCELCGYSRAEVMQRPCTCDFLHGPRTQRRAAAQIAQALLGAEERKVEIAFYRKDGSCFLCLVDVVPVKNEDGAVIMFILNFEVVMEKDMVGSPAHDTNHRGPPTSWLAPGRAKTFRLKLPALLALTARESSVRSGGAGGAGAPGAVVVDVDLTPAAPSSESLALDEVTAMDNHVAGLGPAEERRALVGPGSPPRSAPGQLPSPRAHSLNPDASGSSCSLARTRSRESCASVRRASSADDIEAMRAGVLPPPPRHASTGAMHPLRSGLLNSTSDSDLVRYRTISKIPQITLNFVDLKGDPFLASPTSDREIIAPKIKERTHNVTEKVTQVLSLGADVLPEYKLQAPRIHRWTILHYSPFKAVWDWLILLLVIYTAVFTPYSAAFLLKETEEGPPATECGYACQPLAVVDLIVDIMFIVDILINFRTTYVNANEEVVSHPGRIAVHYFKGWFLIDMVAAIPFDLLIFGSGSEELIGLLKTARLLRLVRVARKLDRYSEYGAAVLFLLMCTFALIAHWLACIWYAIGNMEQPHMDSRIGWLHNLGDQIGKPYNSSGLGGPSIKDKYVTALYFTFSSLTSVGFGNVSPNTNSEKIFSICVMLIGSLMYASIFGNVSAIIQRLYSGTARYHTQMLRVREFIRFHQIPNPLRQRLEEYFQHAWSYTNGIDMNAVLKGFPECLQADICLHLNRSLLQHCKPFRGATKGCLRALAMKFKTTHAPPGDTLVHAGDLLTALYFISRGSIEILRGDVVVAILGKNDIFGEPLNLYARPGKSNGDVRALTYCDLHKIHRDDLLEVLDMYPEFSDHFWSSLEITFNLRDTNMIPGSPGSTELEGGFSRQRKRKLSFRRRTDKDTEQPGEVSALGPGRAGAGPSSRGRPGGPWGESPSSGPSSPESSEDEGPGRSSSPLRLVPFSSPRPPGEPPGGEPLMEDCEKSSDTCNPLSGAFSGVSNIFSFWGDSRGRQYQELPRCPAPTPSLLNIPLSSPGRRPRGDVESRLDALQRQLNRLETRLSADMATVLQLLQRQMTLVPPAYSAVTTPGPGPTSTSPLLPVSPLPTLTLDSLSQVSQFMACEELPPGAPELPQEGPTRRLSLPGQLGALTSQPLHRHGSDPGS
Data set [8] in a line: Solubility at pH 7.4. In kind it is physicochemical. As to conditions: buffer.
The target in data set [9] is 5-hydroxytryptamine receptor 1B (Homo sapiens, UniProt P28222). The data set is described as follows: Binding affinity to 5HT1B receptor.
Sequence of 5-hydroxytryptamine receptor 1B (P28222 whole entry): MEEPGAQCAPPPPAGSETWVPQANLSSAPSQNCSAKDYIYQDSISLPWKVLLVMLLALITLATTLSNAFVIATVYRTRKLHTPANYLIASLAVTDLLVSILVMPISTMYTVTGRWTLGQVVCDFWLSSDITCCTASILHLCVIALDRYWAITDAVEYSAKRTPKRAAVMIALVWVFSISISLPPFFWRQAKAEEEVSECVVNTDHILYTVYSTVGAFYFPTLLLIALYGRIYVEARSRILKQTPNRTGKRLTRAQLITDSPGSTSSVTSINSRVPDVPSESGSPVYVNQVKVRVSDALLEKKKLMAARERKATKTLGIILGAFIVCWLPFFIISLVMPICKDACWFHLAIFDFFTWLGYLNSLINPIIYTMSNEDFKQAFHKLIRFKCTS
Another data set deals with CYP2D6 (Homo sapiens, UniProt P10635). Nature of the data set: Inhibition of CYP2D6 at 3 uM. It counts as ADME.
Sequence of CYP2D6 (P10635 whole entry): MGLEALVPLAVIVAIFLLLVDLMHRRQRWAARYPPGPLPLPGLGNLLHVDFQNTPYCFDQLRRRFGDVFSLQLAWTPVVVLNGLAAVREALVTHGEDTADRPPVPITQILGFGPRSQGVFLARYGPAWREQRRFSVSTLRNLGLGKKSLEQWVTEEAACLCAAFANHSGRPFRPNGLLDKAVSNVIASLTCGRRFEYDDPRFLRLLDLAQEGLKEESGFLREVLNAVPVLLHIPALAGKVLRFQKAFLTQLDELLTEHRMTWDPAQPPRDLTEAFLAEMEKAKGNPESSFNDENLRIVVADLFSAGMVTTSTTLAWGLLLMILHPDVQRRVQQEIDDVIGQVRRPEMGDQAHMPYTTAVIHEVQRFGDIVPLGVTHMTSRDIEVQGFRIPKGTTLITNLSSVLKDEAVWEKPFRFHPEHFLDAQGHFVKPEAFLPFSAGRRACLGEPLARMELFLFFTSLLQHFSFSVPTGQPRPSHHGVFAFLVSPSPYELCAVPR
Data set [10] deals with Rattus norvegicus. Nature of the data set: Permeability across blood brain barrier in Long-Evans rat at 10 mg/kg, ip administered as single dose. In kind it is ADME, organism-based. On the set-up: dose 10 mg/kg, route intraperitoneal. The conditions noted are these: in vivo.
The target of a further data set is D(2) dopamine receptor (Homo sapiens, UniProt P14416). The data set is described as follows: Binding affinity to dopamine D2 receptor.
Sequence of D(2) dopamine receptor (P14416 whole entry): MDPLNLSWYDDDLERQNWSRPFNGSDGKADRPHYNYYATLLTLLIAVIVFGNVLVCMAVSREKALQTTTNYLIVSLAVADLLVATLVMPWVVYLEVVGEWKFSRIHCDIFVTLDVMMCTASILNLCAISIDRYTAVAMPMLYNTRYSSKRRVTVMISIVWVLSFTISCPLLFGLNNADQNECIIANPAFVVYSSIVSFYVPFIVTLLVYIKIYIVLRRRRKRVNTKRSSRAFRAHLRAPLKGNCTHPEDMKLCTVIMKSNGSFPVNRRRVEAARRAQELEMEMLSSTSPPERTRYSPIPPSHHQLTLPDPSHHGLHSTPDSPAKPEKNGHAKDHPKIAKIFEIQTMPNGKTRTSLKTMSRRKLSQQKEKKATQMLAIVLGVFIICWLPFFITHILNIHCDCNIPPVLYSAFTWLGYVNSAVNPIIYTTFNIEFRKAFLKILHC
Data set [11] can be described thus: Permeability at pH 7.4 by PAMPA. The conditions noted are these: read-out: permeability. In kind it is ADME. (PAMPA measures passive passage across an artificial lipid membrane.)
In data set [12] the target is T4, Alpha-2A adrenergic receptor (Homo sapiens, UniProt P08913).
T4 sequence (P08913 whole entry): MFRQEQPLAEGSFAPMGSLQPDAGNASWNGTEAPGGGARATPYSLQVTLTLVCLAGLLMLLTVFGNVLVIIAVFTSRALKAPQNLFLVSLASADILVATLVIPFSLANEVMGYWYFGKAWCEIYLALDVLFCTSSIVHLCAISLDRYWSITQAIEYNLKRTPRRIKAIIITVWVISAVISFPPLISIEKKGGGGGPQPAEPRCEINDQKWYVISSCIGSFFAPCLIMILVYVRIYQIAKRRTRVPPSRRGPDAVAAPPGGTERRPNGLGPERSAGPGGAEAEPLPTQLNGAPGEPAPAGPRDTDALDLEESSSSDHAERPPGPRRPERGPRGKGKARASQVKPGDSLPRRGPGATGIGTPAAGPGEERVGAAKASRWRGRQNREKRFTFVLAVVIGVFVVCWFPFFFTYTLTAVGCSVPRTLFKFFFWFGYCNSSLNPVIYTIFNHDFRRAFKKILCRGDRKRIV
Nature of the data set: Binding affinity to alpha2A adrenergic receptor.

A further data set deals with CYP2C9 (Homo sapiens, UniProt P11712). Nature of the data set: Inhibition of CYP2C9 at 3 uM. It counts as ADME.
Sequence of CYP2C9 (P11712 whole entry): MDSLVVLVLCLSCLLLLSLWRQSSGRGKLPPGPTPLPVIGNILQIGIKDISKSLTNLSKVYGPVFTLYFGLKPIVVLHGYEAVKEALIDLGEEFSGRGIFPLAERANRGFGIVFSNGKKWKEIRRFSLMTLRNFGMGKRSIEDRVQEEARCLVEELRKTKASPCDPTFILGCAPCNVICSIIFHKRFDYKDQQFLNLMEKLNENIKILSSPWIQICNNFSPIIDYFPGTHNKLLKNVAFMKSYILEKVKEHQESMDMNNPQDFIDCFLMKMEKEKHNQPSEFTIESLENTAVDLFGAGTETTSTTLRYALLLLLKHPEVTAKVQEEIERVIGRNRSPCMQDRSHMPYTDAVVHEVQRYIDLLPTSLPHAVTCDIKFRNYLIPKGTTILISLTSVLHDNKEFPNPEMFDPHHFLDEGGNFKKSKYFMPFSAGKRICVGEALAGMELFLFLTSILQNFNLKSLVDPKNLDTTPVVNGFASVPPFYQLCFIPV
Data set [13] deals with 5-hydroxytryptamine receptor 1D (Homo sapiens, UniProt P28221). Nature of the data set: Binding affinity to 5HT1D receptor.
Sequence of 5-hydroxytryptamine receptor 1D (P28221 whole entry): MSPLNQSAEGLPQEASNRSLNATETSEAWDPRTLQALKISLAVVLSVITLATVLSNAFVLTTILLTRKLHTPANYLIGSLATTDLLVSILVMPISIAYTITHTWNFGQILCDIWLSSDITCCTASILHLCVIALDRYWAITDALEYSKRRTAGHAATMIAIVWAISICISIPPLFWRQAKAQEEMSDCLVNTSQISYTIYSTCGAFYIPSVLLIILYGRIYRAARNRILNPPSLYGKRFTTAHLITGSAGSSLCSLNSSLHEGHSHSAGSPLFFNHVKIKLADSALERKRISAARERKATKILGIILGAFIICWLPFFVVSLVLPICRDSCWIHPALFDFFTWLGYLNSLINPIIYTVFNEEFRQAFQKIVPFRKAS
Data set [14] can be described thus: Half life in rat microsomes. It counts as ADME, Microsome.

In brackets after ≈: the same amount, converted by molar mass. Activity calls are given as the source filed them. The rule behind the calls is not given here.

Broadly, the Ki is the dissociation constant of the complex between target and ligand, obtained from inhibition or displacement. What is called IC50 is the concentration needed to halve the response being measured. For orientation: inhibition means the drop in the measured response relative to a control, in per cent. One may read the solubility as how much of the substance goes into solution per volume. A higher solubility goes with a readily soluble substance. A word on the half-life: it is the time in which the quantity being followed falls by half. Higher therefore signals slow decline.

T1 sequence (P41595 whole entry): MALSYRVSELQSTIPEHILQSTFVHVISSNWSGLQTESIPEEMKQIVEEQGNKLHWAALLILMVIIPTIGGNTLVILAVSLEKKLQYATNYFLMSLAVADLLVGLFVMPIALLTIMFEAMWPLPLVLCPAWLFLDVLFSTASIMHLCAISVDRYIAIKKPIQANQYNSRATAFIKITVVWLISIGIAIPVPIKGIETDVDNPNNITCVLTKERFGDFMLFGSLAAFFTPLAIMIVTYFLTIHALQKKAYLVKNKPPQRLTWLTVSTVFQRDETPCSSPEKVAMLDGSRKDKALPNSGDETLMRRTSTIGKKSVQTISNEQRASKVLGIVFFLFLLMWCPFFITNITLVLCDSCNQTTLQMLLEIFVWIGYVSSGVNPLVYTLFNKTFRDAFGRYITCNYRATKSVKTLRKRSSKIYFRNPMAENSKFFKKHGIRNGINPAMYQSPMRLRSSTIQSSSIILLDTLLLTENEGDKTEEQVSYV
Sequence of CYP3A4 (P08684 whole entry): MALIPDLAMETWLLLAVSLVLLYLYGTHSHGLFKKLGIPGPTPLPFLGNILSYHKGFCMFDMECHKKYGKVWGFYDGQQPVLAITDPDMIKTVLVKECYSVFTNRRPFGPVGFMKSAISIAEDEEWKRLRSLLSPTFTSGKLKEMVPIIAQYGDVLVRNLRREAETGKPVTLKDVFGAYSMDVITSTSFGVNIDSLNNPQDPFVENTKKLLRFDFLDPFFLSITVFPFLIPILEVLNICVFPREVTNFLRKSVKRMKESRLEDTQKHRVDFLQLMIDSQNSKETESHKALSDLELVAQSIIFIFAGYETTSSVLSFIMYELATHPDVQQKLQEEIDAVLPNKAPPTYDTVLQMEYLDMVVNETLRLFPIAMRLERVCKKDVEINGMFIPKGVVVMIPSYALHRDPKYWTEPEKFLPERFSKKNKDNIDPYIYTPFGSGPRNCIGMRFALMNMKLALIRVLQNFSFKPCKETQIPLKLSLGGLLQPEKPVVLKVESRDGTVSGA

In the case of `CC(C)n1nc2ccc(N3CC[C@@H](N)C3)cc2c1S(=O)(=O)c1cccc2ccccc12`, in data set [1], the outcome was Active. Also, the values for the Ki in [2] and in [5] were over 3300 nM and 48.7 nM, respectively. In addition, the IC50 in [3] turned out to be 380 nM. Moreover, the outcome in data set [4] was inactive.
As to `NC1CN(c2ccc3[nH]nc(S(=O)(=O)c4cccc5ccccc45)c3c2)C1`, the outcome in data set [1] was Active. Also, the inhibition constant (Ki) in data set [2] worked out at 97.9 nM; in data set [5], 3.55 nM. Besides, the concentration for half-maximal inhibition (IC50) in data set [3] came out at 16.5 nM. Moreover, the result in [4] was inactive.
For the molecule `N[C@H]1CCN(c2ccc3[nH]nc(S(=O)(=O)c4cccc5ccccc45)c3c2)C1`, the outcome in data set [1] was Active. The molecule also displayed a Ki in data set [2] of 21 nM. Moreover, the result in data set [4] was inactive.
For the molecule `Cn1nc(S(=O)(=O)c2cccc3ccccc23)c2cc(N3CC[C@@H](N)C3)ccc21`, in data set [1], the outcome was Active. In addition, the Ki in data set [2] was determined as 185 nM. Also, the IC50 in data set [3] came out at 316 nM. In [4], the result was inactive.
For the molecule `Cn1nc2ccc(N3CC[C@@H](N)C3)cc2c1S(=O)(=O)c1cccc2ccccc12`, the outcome in [1] was Active. The Ki in data set [2] is 455 nM; in data set [5] it was 54.3 nM. Besides, in data set [3], the half-inhibitory concentration (IC50) was 444 nM. In addition, the outcome in data set [4] was inactive.
As for `CC(C)Cn1nc(S(=O)(=O)c2cccc3ccccc23)c2cc(N3CC[C@@H](N)C3)ccc21`, in data set [1], the outcome was Active. The Ki in [2] was over 3300 nM. The IC50 in [3] turned out to be 203 nM. In addition, the result in data set [4] was inactive.
For the molecule `CC(C)n1nc(S(=O)(=O)c2cccc3ccccc23)c2cc(N3CC[C@@H](N)C3)ccc21`, the result (in data set [1]; with Rattus norvegicus [6]) was Active. Also, the affinity in data set [2] corresponds to a Ki of 191 nM. Moreover, the half-maximal inhibitory concentration (IC50) in [3] was found to be 157 nM. Moreover, the result in data set [4] was inactive.
`CN(C)[C@H]1CCN(c2ccc3[nH]nc(S(=O)(=O)c4cccc5ccccc45)c3c2)C1`: in data set [1], the outcome was Active. Also, the Ki in data set [2] is 583 nM; in data set [5], 24.4 nM. Also, the 50% inhibitory concentration (IC50) in data set [3] worked out at 17.5 nM. Besides, the outcome in data set [4] was inactive.
For the molecule `NC1CCN(c2ccc3[nH]nc(S(=O)(=O)c4ccc5ccccc5c4)c3c2)CC1`, the outcome in [1] was Active. Besides, the inhibition constant (Ki) in data set [2] amounted to 1360 nM; in data set [5], 18.2 nM. In [3], the 50% inhibitory concentration (IC50) worked out at 88.9 nM. Moreover, in [4], the outcome was inactive.
The like results for `NC1CCN(c2ccc3[nH]nc(S(=O)(=O)c4cccc5c(Cl)cccc45)c3c2)CC1` were, in that order, “Active”, 78 nM, 4.52 nM, 70.1 nM and “inactive”.
In the case of `CC(C)Cn1nc2ccc(N3CC[C@@H](N)C3)cc2c1S(=O)(=O)c1cccc2ccccc12`, in data set [1], the outcome was Active. Further, the Ki in data set [2] came out at 260 nM; in data set [5], 75.8 nM. Moreover, the IC50 in data set [3] stood at 433 nM. In [4], the result was inactive.
For the molecule `N[C@@H]1CCN(c2ccc3[nH]nc(S(=O)(=O)c4cccc5ccccc45)c3c2)C1`, in [1], the outcome was Active. Moreover, the Ki in [7] is 4730 nM; in [2] it was 274 nM; in data set [9] it was 6040 nM; on D(2) dopamine receptor, 2910 nM; in [12], over 10000 nM; in [13], 2270 nM. Moreover, the inhibition at 3 µM at CYP3A4 stood at 88%; against CYP2D6, 7%; against CYP2C9 it was 73%. This molecule also came in with an inhibition at 10 µM against hERG (KCNH2) of 14%. For the same molecule, the concentration in solution in [8] (solubility) came to 63 µg/mL (≈ 161 µM). In the data set on Rattus norvegicus [10], this molecule yielded a pBBB of 11 ×10⁻⁶ cm/s. For the same molecule, the Papp in data set [11] was determined as 0.19 ×10⁻⁶ cm/s. Besides, in data set [4], the outcome was inactive. Besides, the half-life in data set [14] amounted to 20 min.
In the case of `NC1CCN(c2ccc3[nH]nc(S(=O)(=O)c4cccc(Cl)c4)c3c2)CC1`, the result in data set [1] was Active. This molecule also came in with a Ki in data set [2] of 442 nM. For the same molecule, the concentration for half-maximal inhibition (IC50) in [3] turned out to be 33.7 nM. In addition, the result in data set [4] was inactive.
As to `CN(C)[C@@H]1CCN(c2ccc3[nH]nc(S(=O)(=O)c4cccc5ccccc45)c3c2)C1`, in [1], the result was Active. Besides, the Ki in data set [2] came to 423 nM; in data set [5], 0.51 nM. In [3], the 50% inhibitory concentration (IC50) came to 39.6 nM. Besides, the result in [4] was inactive.
`NC1CCN(c2ccc3[nH]nc(S(=O)(=O)c4cccc5ccccc45)c3c2)CC1`: the outcome in data set [1] was Active. In data set [2], this molecule returned a Ki of 100 nM. Also, the result in data set [4] was inactive.
Turning to `CC(C)c1ccc(S(=O)(=O)c2n[nH]c3ccc(N4CCC(N)CC4)cc23)cc1`, the outcome in data set [1] was Active. In addition, the inhibition constant Ki is over 10000 nM in [2] and 13.1 nM in [5]. Further, the half-maximal inhibitory concentration (IC50) in data set [3] worked out at 51.7 nM. For the same molecule, the outcome in data set [4] was inactive.
The like results for `Cc1ccc(S(=O)(=O)c2n[nH]c3ccc(N4CCC(N)CC4)cc23)c2ccccc12` were, in that order, “Active”, 493 nM, 3.62 nM, 26.7 nM and “inactive”.

(Values after ChEMBL document CHEMBL1157614, “5-Cyclic amine-3-arylsulfonylindazoles as novel 5-HT6 receptor antagonists” (J Med Chem, 2010).)
